Like-named read-outs stand apart in the source and are kept apart here.
Assays:
[1] = system: Calu-3 (human airway epithelial cell line) host cells; format: cell-based
[2] = system: Calu-3 (human airway epithelial cell line) host cells; format: cell-based; remark: listed apart in the source
[3] = system: T cells; format: cell-based, human; settings: T cells with T2 cells, Spike peptide […]; vs media alone
[4] = Saturated aqueous solubility determination; settings: for solubility at 1.5 h: deionized water, 25 °C, water, thermodynamic from solid; for Ratio (relative to CM): solubility relative to creatine monohydrate
Protocol: After 1.5 hour, the saturated solutions were vortexed and 2-ml aliquots removed and centrifuged in microcentrifuge tubes at 11,000 rpm for 5 min. Concentrations were analyzed by HPLC by diluting 500 μL of supernatant with mobile phase (500 μL). The mean±standard deviation of the saturation solubility for each antiviral therapeutic compound is calculated from the corresponding standard curves.

[5] = system: Madin Darby canine kidney (MDCK) monolayers; assay: Flux per hour in MDCK monolayers (contemplated); format: in vitro ADME
From the text: […]. […] […].

[6] = system: Caco-2 monolayers; settings: cited from earlier work

C[N+](C)(C)CC(=O)OC1CCCC1.[Br-] [betaine cyclopentyl ester]
IL-1β expression as percent of the expression when no compound is present [1]: less than 20% | IL-6 expression as percent of the expression when no compound is present [1]: less than 55% | TNF expression as percent of the expression when no compound is present [1]: less than 20% | reduction of IL-6 expression [1]: about 60% | reduction of TNF expression [1]: about 45% | reduction of TNF expression [2]: slightly reduces | release of IFNg from T cells [3]: increased over the control | solubility at 1.5 h [4]: > 600 mg/mL | aqueous solubility compared with betaine hydrochloride ([4]; not shown): significantly greater than betaine hydrochloride | Ratio (relative to CM) [4]: >29

CN(CC(=O)OC1CCCCC1)C(=N)N.Cc1ccc(S(=O)(=O)O)cc1 [creatine cyclohexyl ester]
flux per hour relative to creatine monohydrate [5]: at least double | IL-1β expression as percent of the expression when no compound is present [2]: less than 20% | IL-6 expression as percent of the expression when no compound is present [2]: less than 30% | release of IFNg from T cells [3]: increased over the control | solubility at 1.5 h [4]: 15 to 20 mg/mL | Ratio (relative to CM) [4]: 0.71

CCOC(=O)CN(C)C(=N)N.Cl [creatine ethyl ester hydrochloride]
permeability relative to creatine monohydrate [6]: 15 fold | solubility at 1.5 h [4]: > 200 mg/mL

CCCCCCCCCCCC(=O)OCC(COC(=O)CCCCCCCCCCC)OC(=O)CN(C)C(=N)N [creatine glycerol laurate ester]
flux per hour relative to creatine monohydrate [5]: at least double

CN(CC(=O)O)C(=N)N.Cl [creatine hydrochloride]
reduction of CXCL2 expression [1]: 25 to 30% | reduction of TNF expression [1]: about 25% | reduction of TNF expression [2]: slightly reduces | release of IFNg from T cells [3]: increased over the control

CC(C)CCOC(=O)CN(C)C(=N)N.Cl [creatine isopentyl ester]
IL-1β expression as percent of the expression when no compound is present [2]: less than 35% | release of IFNg from T cells [3]: increased over the control | solubility at 1.5 h [4]: > 600 mg/mL | Ratio (relative to CM) [4]: >29

CN(CC(=O)O)C(=N)N.O [creatine monohydrate, reference compound]
apparent permeability coefficient [6]: about 0.12±0.004 10^−6 cm/s

CCCCCCCCCCCC(=O)OC(C)COC(=O)CN(C)C(=N)N (stereo not shown) [creatine propylene glycol laurate ester]
flux per hour relative to creatine monohydrate [5]: at least double

ethyl (α-guanido-methyl) ethanoate [Alpha-GEE]
reduction of CXCL2 expression [2]: ~70% | release of IFNg from T cells [3]: increased over the control
